Experimental data: patent US9126979B2, “Compounds for inhibiting the interaction of BCL2 with binding partners” (Novartis AG, priority 2011, dated 2015)

How the values were obtained:
[1] = target: BCL-2 binding to biotinylated BAD peptide (Homo sapiens (Human), UniProt P10415); experiment: SPR (Biacore) solution inhibition assay, BCL-2 binding to BAD peptide surface; conditions: read-out: BCL2_SPR IC50 BAD
Excerpt: (§1) The present method includes utility of a Surface plasmon resonance (SPR)-based biosensor (Biacore™′ GE Healthcare, Uppsala, Sweden) to characterize BCL-2 inhibitors.
(§2) Biacore™ utilizes the phenomenon of surface plasmon resonance (SPR) to detect and measure binding interactions. In a typical Biacore experiment, one of the interacting molecules (ligand) is immobilized on a flexible dextran matrix while the interacting partner (analyte) is allowed to flow across that surface. A binding interaction results in an increase in mass on the sensor surface and a corresponding direct change in the refractive index of the medium in the vicinity of the sensor surface. Changes in refractive index or signal are recorded in resonance units (R.U.) Signal changes due to association and dissociation of complexes are monitored in a non-invasive manner, continuously and in real-time, the results of which are reported in the form of a sensorgram.
(§3) The SPR assay is configured to examine solution inhibition of BCL-2 binding to peptide derivatized sensor surfaces to generate IC50 values as a measure of inhibitor potency.
(§4) Biacore™ A100 (GE Healthcare, Uppsala, Sweden) was used to conduct all experiments reported herein. Sensor surface preparation and all interaction analyses experiments were performed at 25° C. Reagents were purchased from GE Healthcare. Running buffer containing 10 mM Hepes, pH7.4, 150 mM sodium chloride, 1.25 mM Dithiothreitol, 3% Dimethyl sulfoxide and 0.05% polysorbate 20 were utilized throughout all analyses.
(§5) Biotinylated BAK, BAD and NOXA peptides were diluted to 10 nM in running buffer and captured onto a sensor surface pre-derivatized with streptavidin (sensor chip SA) to peptide surface densities in the range 50-100 R.U. Peptide captured surfaces were blocked with 50004 PEO2-Biotin.
(§6) Interaction analyses were performed by first equilibrating each sample within a 6 point three fold compound dilution series in the range […] with 56 nM BCL-2 for one hour during instrument start-up procedures. Protein compound mixtures were then injected over each peptide surface in parallel for 60 seconds at a flow-rate of 30 μL/min. 56 nM BCL-2 control samples were also prepared and run at regular intervals during the assay. Surface regeneration was performed at the end of each analysis cycle by two 30 second injections of 10 mM Glycine, pH 2.5, 1M Sodium Chloride, 0.05% polysorbate 20. Samples and control compound samples were run in duplicate and controls are also run at regular intervals during the assay to monitor surface and assay performance.
(§7) Data analyses are carried out using Biacore™ A100 evaluation software v1.1 to validate assay quality. Binding level report points were used relative to BCL-2 control samples to calculate % inhibition values for each compound protein mixture. […] The range of data shown in table 1 represents the high and low IC50 values obtained from multiple experiments.

[2] = target: BCL-2 binding to biotinylated BAK peptide (Homo sapiens (Human), UniProt P10415); experiment: SPR (Biacore) solution inhibition assay, BCL-2 binding to BAK peptide surface; conditions: read-out: BCL2_SPR IC50 BAK
Excerpt: as §1, §2, §3, §4, §5, §6, §7

BCL-2 binding to biotinylated BAD peptide, sequence (P10415 whole entry): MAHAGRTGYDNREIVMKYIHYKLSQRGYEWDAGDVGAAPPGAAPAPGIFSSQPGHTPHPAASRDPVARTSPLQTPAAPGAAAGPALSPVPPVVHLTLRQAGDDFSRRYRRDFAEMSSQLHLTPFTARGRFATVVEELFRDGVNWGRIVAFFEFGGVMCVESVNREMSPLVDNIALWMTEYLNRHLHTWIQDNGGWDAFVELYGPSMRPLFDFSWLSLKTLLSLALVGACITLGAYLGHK
BCL-2 binding to biotinylated BAK peptide, sequence (P10415 whole entry): as above

| Compound | IC50 [1] | IC50 [2] |
| --- | --- | --- |
| CCCCN(CCCC)C(=O)c1nn(-c2ccc(OCC(=O)OCC)cc2C(=O)N2Cc3ccccc3C[C@H]2CO)c(C)c1Cl [Example 1, [4-(4-Chloro-3-dibutylcarbamoyl-5-methyl-pyrazol-1-yl)-3-((S)-3-hydroxymethyl-3,4-dihydro-1H-isoquinoline-2-carbonyl)-phenoxy]-acetic acid ethyl ester] | 509 to 515 nM | 363 to 405 nM |
| CCCCN(CCCC)C(=O)c1cc(C)n(-c2cc(OCC(=O)OCC)ccc2C(=O)N2Cc3ccccc3C[C@H]2CO)n1 [Example 4, [3-(3-Dibutylcarbamoyl-5-methyl-pyrazol-1-yl)-4-((S)-3-hydroxymethyl-3,4-dihydro-1H-isoquinoline-2-carbonyl)-phenoxy]-acetic acid ethyl ester] | 1170 to 1360 nM | 771 to 776 nM |
| CCCCN(CCCC)C(=O)c1cc(C)n(-c2cc(OCC(=O)Nc3ccccc3)ccc2C(=O)N2Cc3ccccc3C[C@H]2CO)n1 [Example 6, 1-[2-((S)-3-Hydroxymethyl-3,4-dihydro-1H-isoquinoline-2-carbonyl)-5-phenylcarbamoylmethoxy-phenyl]-5-methyl-1H-pyrazole-3-carboxylic acid dibutylamide] | 2090 to 2100 nM | 1270 to 1300 nM |
| CCCCN(CCCC)C(=O)c1cc(C)n(-c2cc(OCC(=O)OCc3ccccc3)ccc2C(=O)N2Cc3ccccc3C[C@H]2CO)n1 [Example 7, [3-(3-Dibutylcarbamoyl-5-methyl-pyrazol-1-yl)-4-((S)-3-hydroxymethyl-3,4-dihydro-1H-isoquinoline-2-carbonyl)-phenoxy]-acetic acid benzyl ester] | 1520 to 1560 nM | 1250 to 1320 nM |
| CCCCN(CCCC)C(=O)c1cc(C)n(-c2cc(OCC(=O)Nc3ccccc3F)ccc2C(=O)N2Cc3ccccc3C[C@H]2CO)n1 [Example 8] | 2880 to 3000 nM | 1700 to 1740 nM |
| CCCCN(CCCC)C(=O)c1nn(-c2ccc(O)cc2C(=O)N2Cc3ccccc3C[C@H]2CO)c(C)c1Cl [Example 9] | 618 to 629 nM | 403 to 441 nM |
| CCCCN(CCCC)C(=O)c1nn(-c2ccc(OC)cc2C(=O)N2Cc3ccccc3C[C@H]2CO)c(C)c1Cl [Example 10] | 1370 to 1690 nM | 815 to 969 nM |
| CCCCN(CCCC)C(=O)c1cc(C)n(-c2cc(OC)ccc2C(=O)N2Cc3ccccc3C[C@H]2CO)n1 [Example 12] | 447 to 493 nM | 267 to 299 nM |

The next lines start with the values.

| IC50 [1] | IC50 [2] | Compound |
| --- | --- | --- |
| 149 to 153 nM | 132 to 138 nM | CCCCN(CCCC)C(=O)c1nn(-c2ccc(OCC(=O)O)cc2C(=O)N2Cc3ccccc3C[C@H]2CO)c(C)c1Cl [Example 2, [4-(4-Chloro-3-dibutylcarbamoyl-5-methyl-pyrazol-1-yl)-3-((S)-3-hydroxymethyl-3,4-dihydro-1H-isoquinoline-2-carbonyl)-phenoxy]-acetic acid] |
| 433 to 477 nM | 406 to 437 nM | CCCCN(CCCC)C(=O)c1nn(-c2ccc(OCC(=O)Nc3ccccc3)cc2C(=O)N2Cc3ccccc3C[C@H]2CO)c(C)c1Cl [Example 3, 4-Chloro-1-[2-((S)-3-hydroxymethyl-3,4-dihydro-1H-isoquinoline-2-carbonyl)-4-phenylcarbamoylmethoxy-phenyl]-5-methyl-1H-pyrazole-3-carboxylic acid dibutylamide] |
| 98.9 to 105 nM | 82.3 to 87.3 nM | CCCCN(CCCC)C(=O)c1cc(C)n(-c2cc(OCC(=O)O)ccc2C(=O)N2Cc3ccccc3C[C@H]2CO)n1 [Example 5, [3-(3-Dibutylcarbamoyl-5-methyl-pyrazol-1-yl)-4-((S)-3-hydroxymethyl-3,4-dihydro-1H-isoquinoline-2-carbonyl)-phenoxy]-acetic acid] |
| 258 to 299 nM | 238 to 256 nM | CCCCN(CCCC)C(=O)c1cc(C)n(-c2cc(O)ccc2C(=O)N2Cc3ccccc3C[C@H]2CO)n1 [Example 11] |
